Where a name gives a salt, the structure may show the parent alone.
What was measured:
Format in all cases: cell-based
C. diversus = assay: Substrate hydrolysis on Columbia agar; conditions: 300 mg/l, 18 hours
Listeria ivanovii = assay: Substrate hydrolysis on Columbia agar; conditions: Listeria ivanovii PHLS wild; 300 mg/l; 18 hours
Y. enterocolitica = assay: Substrate hydrolysis on Columbia agar; conditions: 300 mg/l, 18 hours
Serratia marcescens = assay: Substrate hydrolysis on Columbia agar; conditions: Serratia marcescens NCTC 10211; 300 mg/l; 18 hours
P. vulgaris = assay: Substrate hydrolysis on Columbia agar; conditions: 300 mg/l, 18 hours
Gram negative bacteria = assay: Substrate hydrolysis on Columbia agar, summary of screen; conditions: for Gram negative bacteria tested that hydrolysed the substrate: 300 mg/l, 18 hours; for colouration and diffusion of positive strains: positive Gram negative strains, agar
Enterococcus faecalis = assay: Substrate hydrolysis on Columbia agar; conditions: 300 mg/l, 18 hours
Vibrio parahaemolyticus = assay: Substrate hydrolysis on Columbia agar; conditions: 300 mg/l, 18 hours
[1] = tested on: Streptococcus constellatus; assay: Substrate hydrolysis on Columbia agar; conditions: Streptococcus constellatus NCTC 11325; 300 mg/l; 18 hours
Salmonella typhimurium = assay: Substrate hydrolysis on Columbia agar; conditions: Salmonella typhimurium NCTC 74; 300 mg/l; 18 hours
Streptococcus oralis = assay: Substrate hydrolysis on Columbia agar; conditions: Streptococcus oralis NCTC11427; 300 mg/l; 18 hours
P. rettgeri = assay: Substrate hydrolysis on Columbia agar; conditions: P. rettgeri NCTC 7475; 300 mg/l; 18 hours
Vibrio metschnikovii = assay: Substrate hydrolysis on Columbia agar; conditions: Vibrio metschnikovii NCTC 8443; 300 mg/l; 18 hours
E. aerogenes = assay: Substrate hydrolysis on Columbia agar; conditions: 300 mg/l, 18 hours
Salmonella panama = assay: Substrate hydrolysis on Columbia agar; conditions: Salmonella panama SAX 58; 300 mg/l; 18 hours
P. mirabilis = assay: Substrate hydrolysis on Columbia agar; conditions: 300 mg/l, 18 hours
Listeria seerigeri = assay: Substrate hydrolysis on Columbia agar; conditions: Listeria seerigeri PHLS wild; 300 mg/l; 18 hours
Enterococcus mundtii = assay: Substrate hydrolysis on Columbia agar; conditions: Enterococcus mundtii NCTC 12363; 300 mg/l; 18 hours
Serratia spp. = assay: Substrate hydrolysis on Columbia agar; conditions: 300 mg/l, 18 hours
Streptococcus mitis = assay: Substrate hydrolysis on Columbia agar; conditions: Streptococcus mitis NCTC 12261; 300 mg/l; 18 hours
Streptococcus crista = assay: Substrate hydrolysis on Columbia agar; conditions: Streptococcus crista NCTC 12479; 300 mg/l; 18 hours
A. baumanii = assay: Substrate hydrolysis on Columbia agar; conditions: A. baumanii ATCC 19606; 300 mg/l; 18 hours
[2] = tested on: Arcanobacterium haemolyticus; assay: Substrate hydrolysis on Columbia agar; conditions: Arcanobacterium haemolyticus NCTC 52; 300 mg/l; 18 hours
Streptococcus sanguis = assay: Substrate hydrolysis on Columbia agar; conditions: Streptococcus sanguis NCTC 7863; 300 mg/l; 18 hours
K. pneumoniae = assay: Substrate hydrolysis on Columbia agar; parameters: key to the marks not given beside the values; conditions: 300 mg/l, 18 hours
E. cloacae = assay: Substrate hydrolysis on Columbia agar; parameters: key to the marks not given beside the values; conditions: 300 mg/l, 18 hours
[3] = of 120 Gram negative bacteria tested
[4] = Vibrio parahaemolyticus NCTC 10441
[5] = Vibrio parahaemolyticus NCTC 10884
[6] = Vibrio parahaemolyticus NCTC 10903
[7] = Vibrio parahaemolyticus NCTC 11344
[8] = Vibrio parahaemolyticus NCTC 12205

Compound: 3′,4′-dihydroxyflavone-4′-β-D-glucopyranoside sodium salt [DHF-glucoside]
- Hydrolysis by Gram negative bacteria (C. diversus; C. diversus CDI 1): −
- Hydrolysis by Gram negative bacteria (C. diversus; C. diversus CDI 2): −
- Hydrolysis by Gram positive organisms (Listeria ivanovii): ++
- Hydrolysis by Gram negative bacteria (Y. enterocolitica; Y. enterocolitica NCTC 10460): −
- Hydrolysis by Gram negative bacteria (Y. enterocolitica; Y. enterocolitica NCTC 11176): −
- Hydrolysis by Gram negative bacteria (Y. enterocolitica; Y. enterocolitica NCTC 11177): −
- Hydrolysis by Gram negative bacteria (Y. enterocolitica; Y. enterocolitica NCTC 11600): −
- Hydrolysis by Gram negative bacteria (Serratia marcescens): +
- Hydrolysis by Gram negative bacteria (P. vulgaris; P. vulgaris PVU 2): −
- Hydrolysis by Gram negative bacteria (P. vulgaris; P. vulgaris PVU 4): −
- Hydrolysis by Gram negative bacteria (P. vulgaris; P. vulgaris PVU 5): −
- strains known to be producers of β-glucosidase which did not appear to hydrolyse the substrate (Gram negative bacteria; [3]): 11 strains
- Gram negative bacteria tested that hydrolysed the substrate (Gram negative bacteria; [3]): 20%
- colouration and diffusion of positive strains (Gram negative bacteria): brown/black colouration which showed no diffusion in agar
- Hydrolysis by Gram positive organisms (Enterococcus faecalis; Enterococcus faecalis 1): ++
- Hydrolysis by Gram positive organisms (Enterococcus faecalis; Enterococcus faecalis 2): ++
- Hydrolysis by Gram positive organisms (Enterococcus faecalis; Enterococcus faecalis 3): ++
- Hydrolysis by Gram positive organisms (Enterococcus faecalis; Enterococcus faecalis 4): ++
- Hydrolysis by Gram positive organisms (Enterococcus faecalis; Enterococcus faecalis 5): ++
- Hydrolysis by Gram positive organisms (Enterococcus faecalis; Enterococcus faecalis 6): ++
- Hydrolysis by Gram positive organisms (Enterococcus faecalis; Enterococcus faecalis 7): ++
- Hydrolysis by Gram negative bacteria (Vibrio parahaemolyticus; [4]): −
- Hydrolysis by Gram negative bacteria (Vibrio parahaemolyticus; [5]): −
- Hydrolysis by Gram negative bacteria (Vibrio parahaemolyticus; [6]): −
- Hydrolysis by Gram negative bacteria (Vibrio parahaemolyticus; [7]): −
- Hydrolysis by Gram negative bacteria (Vibrio parahaemolyticus; [8]): −
- Hydrolysis by Gram positive organisms [1]: −
- Hydrolysis by Gram negative bacteria (Salmonella typhimurium): −
- Hydrolysis by Gram positive organisms (Streptococcus oralis): −
- Hydrolysis by Gram negative bacteria (P. rettgeri): +
- Hydrolysis by Gram negative bacteria (Vibrio metschnikovii): −
- Hydrolysis by Gram negative bacteria (E. aerogenes; E. aerogenes EAE 1): +
- Hydrolysis by Gram negative bacteria (E. aerogenes; E. aerogenes NCIMB 10102): +
- Hydrolysis by Gram negative bacteria (Salmonella panama): −
- Hydrolysis by Gram negative bacteria (P. mirabilis; P. mirabilis NCTC 10975): −
- Hydrolysis by Gram negative bacteria (P. mirabilis; P. mirabilis PMI 1): −
- Hydrolysis by Gram negative bacteria (P. mirabilis; P. mirabilis PMI 2): −
- Hydrolysis by Gram positive organisms (Listeria seerigeri): ++
- Hydrolysis by Gram positive organisms (Enterococcus mundtii): ++
- Hydrolysis by Gram negative bacteria (Serratia spp.; Serratia spp. SEX 1): +
- Hydrolysis by Gram negative bacteria (Serratia spp.; Serratia spp. SEX 2): +
- Hydrolysis by Gram positive organisms (Streptococcus mitis): −
- Hydrolysis by Gram positive organisms (Streptococcus crista): −
- Hydrolysis by Gram negative bacteria (A. baumanii): −
- Hydrolysis by Gram positive organisms [2]: −
- Hydrolysis by Gram positive organisms (Streptococcus sanguis): −

Compound: O=c1cc(-c2ccc(OC3OC(CO)C(O)C3O)c(O)c2)oc2ccccc12 [DHF-riboside, 3′,4′-dihydroxyflavone-4′-β-D-ribofuranoside Sodium Salt]
- Hydrolysis by Gram negative bacteria (C. diversus; C. diversus CDI 1): ++
- Hydrolysis by Gram negative bacteria (C. diversus; C. diversus CDI 2): ++
- Hydrolysis by Gram positive organisms (Listeria ivanovii): +
- Hydrolysis by Gram negative bacteria (Y. enterocolitica; Y. enterocolitica NCTC 10460): −
- Hydrolysis by Gram negative bacteria (Y. enterocolitica; Y. enterocolitica NCTC 11176): −
- Hydrolysis by Gram negative bacteria (Y. enterocolitica; Y. enterocolitica NCTC 11177): −
- Hydrolysis by Gram negative bacteria (Y. enterocolitica; Y. enterocolitica NCTC 11600): −
- Hydrolysis by Gram negative bacteria (Serratia marcescens): ++
- Hydrolysis by Gram negative bacteria (P. vulgaris; P. vulgaris PVU 2): −
- Hydrolysis by Gram negative bacteria (P. vulgaris; P. vulgaris PVU 4): −
- Hydrolysis by Gram negative bacteria (P. vulgaris; P. vulgaris PVU 5): −
- Hydrolysis by Gram negative bacteria (K. pneumoniae; K. pneumoniae KPN 2): ++
- Hydrolysis by Gram negative bacteria (K. pneumoniae; K. pneumoniae KPN 3): ++
- Hydrolysis by Gram negative bacteria (K. pneumoniae; K. pneumoniae KPN 4): ++
- Hydrolysis by Gram negative bacteria (K. pneumoniae; K. pneumoniae NCTC 10896): ++
- Gram negative bacteria tested that hydrolysed the substrate (Gram negative bacteria; [3]): 68.3%
- colouration and diffusion of positive strains (Gram negative bacteria): clearly visible black chelate which remained restricted to bacterial colonies without diffusion into the surrounding agar
- Hydrolysis by Gram positive organisms (Enterococcus faecalis; Enterococcus faecalis 1): −
- Hydrolysis by Gram positive organisms (Enterococcus faecalis; Enterococcus faecalis 2): +
- Hydrolysis by Gram positive organisms (Enterococcus faecalis; Enterococcus faecalis 3): +
- Hydrolysis by Gram positive organisms (Enterococcus faecalis; Enterococcus faecalis 4): +
- Hydrolysis by Gram positive organisms (Enterococcus faecalis; Enterococcus faecalis 5): +
- Hydrolysis by Gram positive organisms (Enterococcus faecalis; Enterococcus faecalis 6): +
- Hydrolysis by Gram positive organisms (Enterococcus faecalis; Enterococcus faecalis 7): −
- Hydrolysis by Gram negative bacteria (Vibrio parahaemolyticus; [4]): −
- Hydrolysis by Gram negative bacteria (Vibrio parahaemolyticus; [5]): −
- Hydrolysis by Gram negative bacteria (Vibrio parahaemolyticus; [6]): −
- Hydrolysis by Gram negative bacteria (Vibrio parahaemolyticus; [7]): −
- Hydrolysis by Gram negative bacteria (Vibrio parahaemolyticus; [8]): −
- Hydrolysis by Gram positive organisms [1]: −
- Hydrolysis by Gram negative bacteria (Salmonella typhimurium): ++
- Hydrolysis by Gram positive organisms (Streptococcus oralis): −
- Hydrolysis by Gram negative bacteria (P. rettgeri): +
- Hydrolysis by Gram negative bacteria (Vibrio metschnikovii): ++
- Hydrolysis by Gram negative bacteria (E. aerogenes; E. aerogenes EAE 1): ++
- Hydrolysis by Gram negative bacteria (E. aerogenes; E. aerogenes NCIMB 10102): ++
- Hydrolysis by Gram negative bacteria (Salmonella panama): ++
- Hydrolysis by Gram negative bacteria (P. mirabilis; P. mirabilis NCTC 10975): −
- Hydrolysis by Gram negative bacteria (P. mirabilis; P. mirabilis PMI 1): −
- Hydrolysis by Gram negative bacteria (P. mirabilis; P. mirabilis PMI 2): −
- Hydrolysis by Gram positive organisms (Listeria seerigeri): −
- Hydrolysis by Gram negative bacteria (E. cloacae; E. cloacae ECL 1): ++
- Hydrolysis by Gram negative bacteria (E. cloacae; E. cloacae ECL 2): ++
- Hydrolysis by Gram negative bacteria (E. cloacae; E. cloacae ECL 3): ++
- Hydrolysis by Gram negative bacteria (E. cloacae; E. cloacae ECL 4): ++
- Hydrolysis by Gram negative bacteria (E. cloacae; E. cloacae NCTC 11936): ++
- Hydrolysis by Gram positive organisms (Enterococcus mundtii): +
- Hydrolysis by Gram negative bacteria (Serratia spp.; Serratia spp. SEX 1): ++
- Hydrolysis by Gram negative bacteria (Serratia spp.; Serratia spp. SEX 2): ++
- Hydrolysis by Gram negative bacteria (Serratia spp.; Serratia spp. SEX 3): ++
- Hydrolysis by Gram negative bacteria (Serratia spp.; Serratia spp. SEX 4): ++
- Hydrolysis by Gram positive organisms (Streptococcus mitis): −
- Hydrolysis by Gram positive organisms (Streptococcus crista): −
- Hydrolysis by Gram negative bacteria (A. baumanii): −
- Hydrolysis by Gram positive organisms [2]: +
- Hydrolysis by Gram positive organisms (Streptococcus sanguis): −

— patent US7531646B2, “β-D-ribosidase activity indicators with a chromogenic substrate” (priority 2001, dated 2009)
